Bounds are passed on as bounds.

IC50 data for twelve compounds are collected here from patent US20250270224A1, “POLYCYCLIC POLY(ADP-RIBOSE) POLYMERASE SELECTIVE INHIBITOR” (XUANZHU BIOPHARMACEUTICAL CO., LTD., priority 2022, published 2025).

The target of one assay is PARP1 (Homo sapiens (Human), UniProt P09874). Kind of assay: In-vitro enzymatic activity, PARP1 (histone-coated plate, chemiluminescence detection). The assay is classed as biochemical. Particulars: class symbols.
The test system of the next assay is MDA-MB-436 cells. Put plainly: In-vitro cytological inhibitory activity (CelltiterGlo assay), 7 days culture. The assay is classed as cell-based. To be noted: BRCA1 mutated human breast cancer cells, CTG. Here is the method: The MDA-MB-436 cells were adherent cells, and the culture solution was DMEM+10% FBS+1% ITS-G+16 μg/ml glutathione.
Cells in the logarithmic growth phase were collected and counted by a […]. The cell viability was detected by a trypan blue exclusion method, and the cell viability was kept over 90%. The cell concentration was adjusted to be in a proper range, and 90 μL of cell suspension was added into a 96-well plate respectively.
The stock solutions of the test compounds were diluted by 10 times from 10 mM to 1 mM with DMSO, and then continuously gradiently diluted by 3 times with DMSO into a total of 9 concentrations.
10 μL of compound working stock solution was added into each well in a 96-well plate inoculated with cells (diluted by 10 times, the final concentration of DMSO was 0.1%).
Solvent control: 0.1% DMSO (2 μL of DMSO was diluted with 198 μL of culture solution, and then 10 μL of the diluted solution was added into the well plate).
Blank control: the 96-well plate was detected and read 0 hour after the addition.
2.5 the 96-Well Plate was Placed in a 5% CO2 Cell Incubator at 37° C. To Culture for 7 Days
A CTG reagent was thawed and the 96-well plate was equilibrated to room temperature for 30 minutes, 60 μL of reagent (Celltiter Glo assay kit) was added into each well and shaken by a shaker for 2 minutes to mix uniformly (in the dark), and the mixture was incubated at room temperature for 20 minutes (in the dark). Light signal values were read by a multi-functional microplate reader.
On the technique in general: Cellular ATP, detected with luciferase, serves as a proxy for viable cell number.

For another assay, the target named is PARP2 (Homo sapiens (Human), UniProt Q9UGN5). Put plainly: In-vitro enzymatic activity, PARP2 (histone-coated plate, chemiluminescence detection). The format is biochemical. To be noted: class symbols.
Sequence of PARP2 (Q9UGN5 whole entry): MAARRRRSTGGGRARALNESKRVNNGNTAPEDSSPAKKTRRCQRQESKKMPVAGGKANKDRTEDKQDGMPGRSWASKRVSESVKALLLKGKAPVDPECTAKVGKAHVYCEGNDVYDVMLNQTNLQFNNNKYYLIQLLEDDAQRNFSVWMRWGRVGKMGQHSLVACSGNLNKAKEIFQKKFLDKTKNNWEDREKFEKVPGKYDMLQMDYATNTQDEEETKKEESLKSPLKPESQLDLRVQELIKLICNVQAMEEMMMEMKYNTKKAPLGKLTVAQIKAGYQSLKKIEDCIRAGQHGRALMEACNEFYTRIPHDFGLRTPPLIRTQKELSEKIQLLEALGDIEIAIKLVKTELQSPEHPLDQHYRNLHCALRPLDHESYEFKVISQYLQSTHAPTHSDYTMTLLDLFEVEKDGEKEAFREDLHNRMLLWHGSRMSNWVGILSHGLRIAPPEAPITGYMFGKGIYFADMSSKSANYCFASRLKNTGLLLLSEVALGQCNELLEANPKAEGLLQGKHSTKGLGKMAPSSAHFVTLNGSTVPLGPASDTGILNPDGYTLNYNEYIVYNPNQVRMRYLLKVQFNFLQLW

Sequence of PARP1 (P09874 whole entry): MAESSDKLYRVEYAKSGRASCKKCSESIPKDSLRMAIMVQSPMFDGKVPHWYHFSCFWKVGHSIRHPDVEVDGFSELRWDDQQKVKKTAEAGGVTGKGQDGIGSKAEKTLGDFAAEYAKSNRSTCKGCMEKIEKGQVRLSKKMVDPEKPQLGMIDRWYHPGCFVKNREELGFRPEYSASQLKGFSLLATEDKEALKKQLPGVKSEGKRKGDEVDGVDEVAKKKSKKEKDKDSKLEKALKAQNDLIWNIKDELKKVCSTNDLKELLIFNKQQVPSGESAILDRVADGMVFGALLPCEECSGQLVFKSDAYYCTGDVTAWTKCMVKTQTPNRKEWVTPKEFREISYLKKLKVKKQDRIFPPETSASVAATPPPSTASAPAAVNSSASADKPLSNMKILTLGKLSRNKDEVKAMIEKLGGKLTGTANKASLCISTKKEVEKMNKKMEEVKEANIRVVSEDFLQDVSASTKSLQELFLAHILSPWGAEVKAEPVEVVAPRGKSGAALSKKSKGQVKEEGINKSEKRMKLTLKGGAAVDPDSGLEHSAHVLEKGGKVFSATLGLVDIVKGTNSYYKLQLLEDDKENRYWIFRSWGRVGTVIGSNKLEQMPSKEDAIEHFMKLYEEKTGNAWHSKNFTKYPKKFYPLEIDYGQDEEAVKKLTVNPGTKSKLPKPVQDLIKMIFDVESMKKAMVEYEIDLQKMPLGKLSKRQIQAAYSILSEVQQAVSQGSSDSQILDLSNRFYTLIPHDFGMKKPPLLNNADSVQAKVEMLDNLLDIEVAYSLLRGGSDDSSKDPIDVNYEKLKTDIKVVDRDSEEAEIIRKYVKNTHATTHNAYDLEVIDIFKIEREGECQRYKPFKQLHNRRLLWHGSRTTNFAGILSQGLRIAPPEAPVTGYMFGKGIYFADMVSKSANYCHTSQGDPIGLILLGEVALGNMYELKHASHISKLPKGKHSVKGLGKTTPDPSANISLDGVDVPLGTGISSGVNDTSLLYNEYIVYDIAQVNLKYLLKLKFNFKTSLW

The IC50 is the point on the concentration scale where inhibition reaches its midpoint. A lower IC50 goes with higher potency. For “5-(4-((6,9-difluoro-3-methyl-2-oxo-2,3-dihydro-1H-pyrrolo[1,2,3-de]quinoxaline-8-yl)methyl)piperazine-1-yl)-6-fluoro-N-methylpyridine Formamide [Compound 38]”, the figures for the IC50 on PARP1, with MDA-MB-436 cells and against PARP2 were 1 to 3 nM, 15.2 nM and 100 to 1000 nM, respectively.

In the assay with MDA-MB-436 cells, `CNC(=O)c1ccc(N2CCN(Cc3cc4c5c(c(C)c(=O)[nH]c5c3F)CC4)CC2)c(F)n1` [Compound 6, 6-fluoro-5-(4-((8-fluoro-3-methyl-2-oxo-1,2,4,5-tetrahydrocyclopentyl[de]quinoline-7-yl)methyl)piperazine-1-yl)-N-methylpicolinamide] showed a half-maximal inhibitory concentration (IC50) of 2 nM.

In turn, `CNC(=O)c1ccc(N2CCN(Cc3cc4c5c(cnn5CC(=O)N4)c3)CC2)c(F)n1` [Compound 8, 6-fluoro-N-methyl-5-(4-((2-oxo-2,3-dihydro-1H-pyrazolo[1,5,4-de]quinoxaline-8-yl)methyl)piperazine-1-yl)picolinamide] gave an IC50 in the assay with MDA-MB-436 cells (MDA-MB-436, 168 h) of 129 nM.

Turning to `CNC(=O)c1ccc(N2CCN(Cc3cc4c5c(ccn5CC(=O)N4)c3)CC2)c(F)n1` [Compound 11, 6-fluoro-N-methyl-5-(4-((2-oxo-2,3-dihydro-1H-pyrrolo[1,2,3-de]quinoxaline-8-yl)methyl)piperazine-1-yl)picolinamide], in the assay on MDA-MB-436 cells (MDA-MB-436, 168 h), inhibition was half-maximal at 21.5 nM (IC50). This IC50 is about 6-fold lower than that of the compound before.

Regarding `CNC(=O)c1ccc(N2CCN(Cc3cc4c5c(c(C)c(=O)[nH]c5c3)CCC4)CC2)c(F)n1` [Compound 25, 6-fluoro-N-methyl-5-(4-((3-methyl-2-oxo-2,4,5,6-tetrahydro-1H-benzo[de]quinoline-8-yl)methyl)piperazine-1-yl)picolinamide], the IC50 at PARP1 is less than 1 nM; in the assay on MDA-MB-436 cells (MDA-MB-436, 168 h), 15.8 nM; against PARP2, 10 to 100 nM.

For the compound `CNC(=O)c1ccc(N2CCN(Cc3cc4c5c(c(C)c(=O)[nH]c5c3)CC4)CC2)c(F)n1` [Compound 31, 6-fluoro-N-methyl-5-(4-((3-methyl-2-oxo-1,2,4,5-tetrahydrocyclopentane[de]quinoline-7-yl)methyl)piperazine-1-yl)pyridine carboxamide], the IC50 on PARP1 is less than 1 nM; in the assay with MDA-MB-436 cells, 2.2 nM; against PARP2, 10 to 100 nM.

Consider `CNC(=O)c1ccc(N2CCN(Cc3cc4cc(C)n5c4c(c3F)NC(=O)C5C)CC2)c(F)n1` (centres unmarked) [Compound 34, 6-fluoro-5-(4-((9-fluoro-3,5-dimethyl-2-oxo-2,3-dihydro-1H-pyrrolo[1,2,3-de]quinoxaline-8-yl)methyl)piperazine-1-yl)-N-methylpyridine formamide], for which the half-inhibitory concentration (IC50) was 1 to 3 nM against PARP1; 13.6 nM in the assay with MDA-MB-436 cells (MDA-MB-436, 168 h); 100 to 1000 nM against PARP2.

As for `CNC(=O)c1ccc(N2CCN(Cc3cc4ccn5c4c(c3F)NC(=O)[C@H]5C)CC2)c(F)n1` [Compound 36, (R)-6-fluoro-5-(4-((9-fluoro-3-methyl-2-oxo-2,3-dihydro-1H-pyrrolo[1,2,3-de]quinoxaline-8-yl)methyl)piperazine-1-yl)-N-methylpyridine formamide], in the assay on MDA-MB-436 cells (MDA-MB-436, 168 h), the IC50 is 11.1 nM.

As for `CNC(=O)c1ccc(N2CCN(Cc3cc4c5c(ccn5C(C)(C)C(=O)N4)c3)CC2)c(F)n1` [Compound 46, 5-(4-((3,3-dimethyl-2-oxo-2,3-dihydro-1H-pyrrolo[1,2,3-de]quinoxaline-8-yl)methyl)piperazine-1-yl)-6-fluoro-N-methylpicolinamide], the IC50 was 3 to 10 nM on PARP1; 9.2 nM in the assay on MDA-MB-436 cells (MDA-MB-436, 168 h); 100 to 1000 nM at PARP2.

`CNC(=O)c1ccc(N2CCN(Cc3cc4c5c(c3)c(F)nn5[C@@H](C)C(=O)N4)CC2)c(F)n1` [Compound 49-1, (S)-6-fluoro-5-(4-((6-fluoro-3-methyl-2-oxo-2,3-dihydro-1H-pyrazolo[1,5,4-de]quinoxaline-8-yl)methyl)piperazine-1-yl)-N-methylpicolinamide]: the half-maximal inhibitory concentration (IC50) is 1 to 3 nM against PARP1; 3.6 nM in the assay on MDA-MB-436 cells (MDA-MB-436, 168 h); 100 to 1000 nM on PARP2.

On to `CNC(=O)c1ccc(N2CCN(Cc3cc4c5c(c3)c(F)nn5[C@H](C)C(=O)N4)CC2)c(F)n1` [Compound 49-2, (R)-6-fluoro-5-(4-((6-fluoro-3-methyl-2-oxo-2,3-dihydro-1H-pyrazolo[1,5,4-de]quinoxaline-8-yl)methyl)piperazine-1-yl)-N-methylpicolinamide], for which the IC50 against PARP1 was less than 1 nM; in the assay with MDA-MB-436 cells (MDA-MB-436, 168 h), 2.9 nM; against PARP2, 100 to 1000 nM.

Compound “(S)-6-fluoro-5-(4-((9-fluoro-3-methyl-2-oxo-2,3-dihydro-1H-pyrrolo[1,2,3-de]quinoxaline-8-yl) methyl)piperazine-1-yl)-N-methylpyridine formamide [Compound 35]” had an IC50 in the assay on MDA-MB-436 cells of 46.5 nM.
